We go through five compounds from ChEMBL document CHEMBL1152616, “The biological activity and metabolic stability of peptidic bifunctional compounds that are opioid receptor agonists and neurokinin-1 receptor antagonists with a cystine moiety” (Bioorg Med Chem, 2009).

The target in series [1] is Delta-type opioid receptor (Mus musculus, UniProt P32300). The series can be described thus: Agonist activity at delta opioid receptor in mouse vas deferens assessed as inhibition of electrically-stimulated contraction. Type of series: functional, tissue-based.
Sequence of Delta-type opioid receptor (Mus musculus, UniProt P32300) (P32300 whole entry): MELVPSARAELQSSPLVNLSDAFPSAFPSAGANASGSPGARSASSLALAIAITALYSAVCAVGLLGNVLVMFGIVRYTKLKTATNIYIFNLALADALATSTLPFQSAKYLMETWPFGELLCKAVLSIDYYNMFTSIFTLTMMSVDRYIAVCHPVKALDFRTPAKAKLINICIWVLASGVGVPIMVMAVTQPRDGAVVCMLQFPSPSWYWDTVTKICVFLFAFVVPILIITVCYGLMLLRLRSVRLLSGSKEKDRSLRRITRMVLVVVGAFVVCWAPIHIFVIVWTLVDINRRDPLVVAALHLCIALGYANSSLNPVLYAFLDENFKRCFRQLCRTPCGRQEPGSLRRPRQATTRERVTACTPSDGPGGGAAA
The target in series [2] is Mu-type opioid receptor (Cavia porcellus, UniProt P97266). The series can be described thus: Agonist activity at mu opioid receptor in guinea pig ileum assessed as inhibition of electrically-stimulated contraction. Type of series: functional, tissue-based.
Sequence of Mu-type opioid receptor (Cavia porcellus, UniProt P97266) (P97266 whole entry): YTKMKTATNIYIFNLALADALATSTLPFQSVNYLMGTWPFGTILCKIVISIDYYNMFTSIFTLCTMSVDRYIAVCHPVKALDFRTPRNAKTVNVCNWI
For series [3], the target named is Substance-P receptor (Rattus norvegicus, UniProt P14600). The series can be described thus: Displacement of [3H]substance P from rat NK1 receptor expressed in CHO cell membranes. The arrangement: species or system Membrane. A general note: Displacement assays read how much labelled ligand stays bound in the presence of the test substance.
Sequence of Substance-P receptor (Rattus norvegicus, UniProt P14600) (P14600 whole entry): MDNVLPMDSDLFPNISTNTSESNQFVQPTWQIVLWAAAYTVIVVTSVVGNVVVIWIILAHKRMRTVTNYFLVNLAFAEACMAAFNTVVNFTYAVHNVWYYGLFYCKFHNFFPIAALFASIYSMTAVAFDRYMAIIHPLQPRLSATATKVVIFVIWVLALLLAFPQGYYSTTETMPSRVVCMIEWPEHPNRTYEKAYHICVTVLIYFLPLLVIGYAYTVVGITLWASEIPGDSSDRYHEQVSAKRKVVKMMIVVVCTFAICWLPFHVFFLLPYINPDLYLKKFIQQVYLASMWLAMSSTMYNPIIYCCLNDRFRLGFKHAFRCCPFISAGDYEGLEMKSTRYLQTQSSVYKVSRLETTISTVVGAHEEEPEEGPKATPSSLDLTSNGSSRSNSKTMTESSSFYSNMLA
In series [4] the target is T1, Mu-type opioid receptor (Rattus norvegicus, UniProt P33535). The series can be described thus: Displacement of [3H]DAMGO from rat mu opioid receptor expressed in HN9.10 cells. It counts as cell-based.
T1 sequence (P33535 whole entry): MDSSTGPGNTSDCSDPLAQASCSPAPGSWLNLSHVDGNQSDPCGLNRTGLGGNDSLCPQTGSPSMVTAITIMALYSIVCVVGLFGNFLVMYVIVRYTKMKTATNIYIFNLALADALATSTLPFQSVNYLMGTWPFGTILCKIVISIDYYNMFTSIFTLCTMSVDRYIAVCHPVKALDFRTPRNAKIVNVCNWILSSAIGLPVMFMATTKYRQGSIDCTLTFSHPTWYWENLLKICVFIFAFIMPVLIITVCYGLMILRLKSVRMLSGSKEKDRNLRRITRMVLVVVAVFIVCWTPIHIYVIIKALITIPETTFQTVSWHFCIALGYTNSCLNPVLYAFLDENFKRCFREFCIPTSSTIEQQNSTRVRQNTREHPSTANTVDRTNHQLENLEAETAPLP
Series [5] deals with Mu-type opioid receptor (Cavia porcellus) (UniProt P97266). The series can be described thus: Agonist activity at mu opioid receptor in guinea pig ileum assessed as inhibition of electrically-stimulated contraction at 1 uM. It counts as functional, tissue-based.
Sequence of Mu-type opioid receptor (Cavia porcellus) (P97266 whole entry): as the sequence (P97266 whole entry) above
Series [6] shares this target. The series can be described thus: Antagonist activity at mu opioid receptor in guinea pig ileum assessed as effect on electrically-stimulated contraction at 1 uM. Type of series: functional, tissue-based.
In series [7] the target is T2, Delta-type opioid receptor (Homo sapiens, UniProt P41143). The series can be described thus: Displacement of [3H]DPDPE from human delta opioid receptor expressed in HN9.10 cells. Type of series: cell-based.
T2 sequence (P41143 whole entry): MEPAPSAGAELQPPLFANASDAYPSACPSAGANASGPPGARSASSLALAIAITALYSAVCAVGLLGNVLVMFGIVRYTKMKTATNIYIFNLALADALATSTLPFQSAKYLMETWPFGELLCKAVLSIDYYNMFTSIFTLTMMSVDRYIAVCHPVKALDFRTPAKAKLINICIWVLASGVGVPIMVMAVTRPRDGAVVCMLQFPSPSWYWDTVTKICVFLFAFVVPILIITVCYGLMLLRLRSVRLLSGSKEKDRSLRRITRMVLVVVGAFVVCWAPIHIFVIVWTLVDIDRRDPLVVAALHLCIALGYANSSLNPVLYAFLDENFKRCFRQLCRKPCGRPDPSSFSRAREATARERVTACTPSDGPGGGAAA
Series [8] has as its target T2, Delta-type opioid receptor. The series can be described thus: Agonist activity at human delta opioid receptor expressed in HN9.10 cells assessed as stimulation of [35S]GTPgammaS binding. Type of series: functional, cell-based. Background: GTPγS is a poorly hydrolysed GTP analogue; its binding reports G protein activation.
The target of series [9] is Mu-type opioid receptor (Rattus norvegicus) (UniProt P33535). The series can be described thus: Agonist activity at rat mu opioid receptor expressed in HN9.10 cells assessed as stimulation of [35S]GTPgammaS binding relative to untreated basal control. Type of series: functional, cell-based.
Sequence of Mu-type opioid receptor (Rattus norvegicus) (P33535 whole entry): as the sequence (P33535 whole entry) above
The target in series [10] is T2, Delta-type opioid receptor. The series can be described thus: Agonist activity at human delta opioid receptor expressed in HN9.10 cells assessed as stimulation of [35S]GTPgammaS binding relative to untreated basal control. It counts as functional, cell-based.
Series [11] concerns the target Substance-P receptor (Homo sapiens, UniProt P25103). The series can be described thus: Displacement of [3H]substance P from human NK1 receptor expressed in CHO cell membranes.
Series [12] is described as follows: Half life in rat plasma at 37 degC. It counts as ADME, cell-free.
Series [13] concerns the target Substance-P receptor (Cavia porcellus) (UniProt P30547). To be noted: Ileum.
Description: Antagonist activity at NK1 receptor in guinea pig ileum assessed as inhibition of substance P-induced muscle contraction in presence of naloxone
In series [14] the target is T1, Mu-type opioid receptor. The series can be described thus: Agonist activity at rat mu opioid receptor expressed in HN9.10 cells assessed as stimulation of [35S]GTPgammaS binding. Type of series: functional, cell-based.
Series [15] is described as follows: Metabolic stability in rat plasma assessed as parent compound remaining at 37 degC after 24 hrs. Type of series: ADME, cell-free. To be noted: read-out: Stability.

Active and inactive are the calls of the source. The calls are words filed in the database; no cut-off is given here. Positions of bridges follow the written chain, without caps; N, C: chain ends. Non-standard residues stand in square brackets, D forms with d. Residues, ends and D or L forms follow the SMILES beside them. *: point of attachment. NH(3,5-(CF3)2-benzyl) = FC(F)(F)c1cc(CN*)cc(C(F)(F)F)c1; Nle = CCCC[C@H](N)C(=O)O

Sequence of Substance-P receptor (Cavia porcellus) (P30547 whole entry): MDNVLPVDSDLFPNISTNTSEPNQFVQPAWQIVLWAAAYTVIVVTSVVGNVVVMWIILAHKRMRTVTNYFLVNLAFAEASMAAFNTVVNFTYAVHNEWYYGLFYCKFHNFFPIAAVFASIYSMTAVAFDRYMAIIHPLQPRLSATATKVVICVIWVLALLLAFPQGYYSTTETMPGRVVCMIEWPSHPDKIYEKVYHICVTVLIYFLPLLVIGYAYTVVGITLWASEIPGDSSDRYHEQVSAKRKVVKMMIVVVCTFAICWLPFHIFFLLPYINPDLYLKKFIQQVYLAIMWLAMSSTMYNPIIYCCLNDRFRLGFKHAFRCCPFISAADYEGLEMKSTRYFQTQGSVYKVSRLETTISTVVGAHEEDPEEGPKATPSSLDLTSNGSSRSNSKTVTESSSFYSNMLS
Sequence of Substance-P receptor (Homo sapiens, UniProt P25103) (P25103 whole entry): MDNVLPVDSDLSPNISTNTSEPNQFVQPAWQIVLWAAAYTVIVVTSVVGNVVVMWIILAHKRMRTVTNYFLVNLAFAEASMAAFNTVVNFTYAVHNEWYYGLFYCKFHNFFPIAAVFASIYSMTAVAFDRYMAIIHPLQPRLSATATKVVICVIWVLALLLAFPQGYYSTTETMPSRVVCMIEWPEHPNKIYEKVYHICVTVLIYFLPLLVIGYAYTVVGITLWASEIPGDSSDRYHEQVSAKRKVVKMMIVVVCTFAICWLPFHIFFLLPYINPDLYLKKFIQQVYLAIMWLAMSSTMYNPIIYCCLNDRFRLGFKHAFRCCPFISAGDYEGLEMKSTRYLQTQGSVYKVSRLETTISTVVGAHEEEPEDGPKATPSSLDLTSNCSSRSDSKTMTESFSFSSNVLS

Turning to `CSCC[C@H](NC(=O)[C@H](Cc1ccccc1)NC(=O)CNC(=O)[C@@H](C)NC(=O)[C@@H](N)Cc1ccc(O)cc1)C(N)=O`, the concentration for half-maximal inhibition (IC50) in [1] was 36 nM; in series [2], 45 nM.
For `CC(C)C[C@H](NC(=O)[C@@H]1CCCN1C(=O)[C@@H]1CSSC[C@@H](NC(=O)[C@@H](N)Cc2ccc(O)cc2)C(=O)NCC(=O)N[C@@H](Cc2ccccc2)C(=O)N1)C(=O)N[C@@H](Cc1c[nH]c2ccccc12)C(=O)NCc1cc(C(F)(F)F)cc(C(F)(F)F)c1`, the IC50 is 1780 nM in series [3], 427 nM in series [4] and 22.4 nM in series [7]. Further, the inhibition in [5] worked out at 10%. Besides, in [6], the result was Active.
`CC(C)C[C@H](NC(=O)[C@@H]1CCCN1C(=O)[C@H]1CSSC[C@@H](NC(=O)[C@@H](N)Cc2ccc(O)cc2)C(=O)NCC(=O)N[C@@H](Cc2ccccc2)C(=O)N1)C(=O)N[C@@H](Cc1c[nH]c2ccccc12)C(=O)NCc1cc(C(F)(F)F)cc(C(F)(F)F)c1`: the results for the IC50 in series [3], in series [4] and in series [7] were 138 nM, 115 nM and 15.5 nM, respectively.
For the compound `CCCC[C@@H]1NC(=O)[C@H](Cc2ccccc2)NC(=O)CNC(=O)[C@H](NC(=O)[C@@H](N)Cc2ccc(O)cc2)CSSC[C@@H](C(=O)N[C@@H](Cc2c[nH]c3ccccc23)C(=O)NCc2cc(C(F)(F)F)cc(C(F)(F)F)c2)NC(=O)[C@@H]2CCCN2C1=O` (H-Y[dC]GF[Nle]PCW-{NH(3,5-(CF3)2-benzyl)}; disulfide 2-7), the half-maximal inhibitory concentration (IC50) in series [3] was 95.5 nM; in [4], 166 nM; in [11], 0.186 nM; in [2] it was 1000 nM; in series [7], 2.69 nM. The EC50 was 0.0174 nM in [8] (read-out: pEC50 (converted)) and 36 nM in [14]. The Emax in [9] is 36%; in series [10] it was 11%. For the same compound, in series [12], the half-life is more than 6 h. In addition, in [13], the Ke was 2.2 nM.
Consider `CCCC[C@@H]1NC(=O)[C@H](Cc2ccccc2)NC(=O)CNC(=O)[C@H](NC(=O)[C@@H](N)Cc2ccc(O)cc2)CSSC[C@H](C(=O)N[C@@H](Cc2c[nH]c3ccccc23)C(=O)NCc2cc(C(F)(F)F)cc(C(F)(F)F)c2)NC(=O)[C@@H]2CCCN2C1=O` (H-Y[dC]GF[Nle]P[dC]W-{NH(3,5-(CF3)2-benzyl)}; disulfide 2-7), for which the IC50 in series [3] is 22.4 nM; in series [4] it was 316 nM; in series [11], 0.49 nM; in [7] it was 117 nM. The figures for the EC50 in series [8] (read-out: EC50) and in [14] were 13 nM and 22 nM, respectively. For the same compound, the Emax in series [9] was determined as 9%; in series [10], 110%. In addition, the inhibition in series [5] was 3%. Moreover, the result in [6] was Active. The compound further returned a half-life in [12] of more than 6 h. In series [13], this compound showed a Ke of 12 nM. In addition, the remaining at 24 h in series [15] amounted to 70%.

Broadly, the IC50 is the concentration that gives 50% inhibition. What is called inhibition is the relative decrease from the control value, in per cent. By Emax is commonly meant the greatest response seen or fitted, relative to the assay's reference. By half-life is commonly meant the time in which the quantity being followed falls by half.
